Data as given in patent US20050043369A1, “Bactericidal antimicrobial methods and compositions for use in treating gram positive infections” (Protez Pharmaceuticals Inc., priority 2000, published 2005).
Like-named read-outs stand apart in the source and are kept apart here.

Tests used:
S. aureus SA1199 [1] = test: Checkerboard two-fold broth microdilution, MIC and MBC; type: cell-based, Staphylococcus aureus; settings: for MBC / MBC^a = MBC in the absence of INF 401: antibiotic alone; for MBC^b = MBC in the presence of 5 μg/ml of INF 401: plus 5 μg/ml INF 401; for bactericidal concentration of antibiotic alone as multiple of MIC: absence of INF 401
Description: Checkerboard titration was performed with INF 401 and erythromycin to quantitate the effects of the combination on Staphylococcal growth using two-fold serial broth microdilution. After overnight incubation, cells were transferred to fresh medium, as described above, to determine those combinations that were bactericidal to S. aureus. […] Although not determined according to NCCLS recommended procedures ([…]), the inventors considered this the Minimal Bactericidal Concentration (MBC).
The inventors next evaluated whether INF 401 was bactericidal in combination with other protein synthesis inhibitors which are bacteriostatic to S. aureus. Checkerboard studies were performed with two-fold dilutions of each antibiotic in combination with INF 401 using the assay described above in Example 2. After overnight incubation the MIC of each antibiotic was determined by visualization of bacterial growth. […] The MBC of each antibiotic was determined as described in Example 2 in the absence or presence of INF 401.

S. aureus (SA1199) = test: Time kill studies (CFU counts); type: cell-based, Staphylococcus aureus; settings: for reduction in cell viability, antibiotic in combination with INF 401: antibiotic 1×MIC + 5 μg/ml INF 401
Description: FIG. 5A, FIG. 5B and FIG. 5C. […]
The initial inoculum number was determined by plating an appropriate dilution on LB agar plates and determining the number of colony forming units (CFUs). At different time points an aliquot was withdrawn from each tube and cell viability was determined by plating an appropriate dilution and counting CFUs after overnight incubation.

S. pneumoniae = test: Bactericidal activity (MBC) of translational inhibitors with or without INF 401 in S. pneumoniae; type: cell-based, Streptococcus pneumoniae; settings: antibiotic alone
Source text: It would be desirable that an antibiotic potentiator of the present invention is active not only in S. aureus but also in other bacterial pathogens. The inventors have begun studies to investigate whether INF 401 can also potentiate the activity of translational inhibitors in another Gram positive pathogen, S. pneumoniae.

S. aureus SA 29213 = test: 55Fe transport assay (intracellular iron accumulation); type: cell-based, Staphylococcus aureus; settings: for ^55Fe Accm.: compound at 2 μg/ml, S. aureus SA 29213
Description: Next, investigated was whether INF 401 affects intracellular iron accumulation. An ^55Fe transport assay (modified from Sebulsky, 2000) was used to examine the ability of INF 401 to transport iron inside the cell. Briefly, exponentially growing cells were diluted to OD600 0.1 in LB, incubated with ^55FeCl3 for 30 min at 37° C., washed and counted in scintillation fluid using the tritium channel of a scintillation system. […] However, the presence of INF 401 in either the absence or presence of antibiotic led to a dramatic increase in iron accumulation (209,215 and 231,621 DPM, respectively).
(§1) Activity of the compound is depicted as the minimal concentration required to kill 99.9% of S. aureus in the presence of 4 μg/ml erythromycin.

[2] = system: S. aureus strain ATTC 29213; test: Characterization of killing by INF 401 plus chloramphenicol (viability, morphology, protein, DNA, metal dependence); type: cell-based, Staphylococcus aureus; settings: chloramphenicol 20 μg/ml or INF 401 2 μg/ml alone
Description: Time kill study of the effect of NF 401 in combination with chloramphenicol. Exponentially growing cells (S. aureus strain 29213) were diluted to OD600 0.1 in LB supplemented with 20 μg/ml of chloramphenicol (Cm) in the presence or absence of INF 401 (2 μg/ml) and incubated with shaking at 37° C. At indicated time points cells were harvested, washed with LB and plated on LB agar plates. Number of colony forming units (CFUs) was determined after overnight incubation.
Time kill study of the effect of iron on the bactericidal activity of INF 401. S. aureus strain 29213 was grown overnight in iron-limited Staphylococcal Siderophore Detection (SSD) medium (Heinrichs, 1999) supplemented with 2 μM FeCl3, washed with SSD and diluted 1:100 into the fresh medium containing 0, 2 or 50 μm FeCl3. Exponentially growing cells were diluted to OD600 0.01 in the corresponding medium supplemented when indicated with 20 μg/ml of chloramphenicol (Cm) and 2 μg/ml of INF 401. At 0, 1, 2 and 3.5 hours cells were plated in different dilutions to the LB agar plates and number of colony forming units (CFUs) was counted next day.

S. aureus SA1199 [3] = test: Checkerboard two-fold broth microdilution, MIC and MBC; type: cell-based, Staphylococcus aureus; settings: Table 2, plus 10 μg/ml INF 402, unit not given
S. aureus ATCC 29213 = test: MBEC assay system, checkerboard: planktonic MIC and biofilm MBEC; type: cell-based, Staphylococcus aureus; settings: INF 401 at 0.3 μg/ml where in label
Description: These studies were performed via the method of Dr. Howard Ceri (University of Calgary), who recently developed a method for the routine determination of the antibiotic susceptibility of biofilms. To date, the inventors have tested the effect of the combination of INF 401 on the ability of either clindamycin or rifampin to eradicate S. aureus biofilms in vitro. S. aureus ATCC 29213 was selected for the study as previous studies of this isolate as a biofilm had been conducted and the isolate served as a quality assurance organism for NCCLS standardization of antibiotic testing. Biofilms were formed as previously described for this organism (Ceri et al., 1999) using the MBEC™ assay system. Checkerboard studies were performed with each antibiotic versus INF 401.

S. aureus strain SA1199 = test: Screening and titration of potentiators with erythromycin (4 μg/ml), viability read by transfer to fresh medium; type: cell-based, Staphylococcus aureus; settings: in the presence of 4 μg/ml erythromycin
Description: In an exemplary screening assay, in order to identify a candidate acyl hydrazide, oxy amide or 8-hydroxy quinoline composition as an antibacterial agent potentiator, the S. aureus strain SA1199 may be used. The procedure for screening is as follows: logarithmically growing S. aureus SA1199 are inoculated to a final OD600 of 0.002 into 150 μl of LB medium containing a bacteriostatic concentration of an antimicrobial agent for that strain, for example, erythromycin (4 μg/ml) at four times the Minimal Inhibitory
Concentration (MIC). […] In preliminary studies the inventors determined that under these conditions up to 2000 viable cells were transferred after incubation with erythromycin. As confirmed by broth microdilution, at least a 1000-fold reduction in viability was required to see no visible growth after 20 hours. Acyl hydrazide, oxy amide or 8-hydroxy quinoline antibiotic potentiators may be identified as those compounds that increase the bactericidal effect of the erythromycin.
The macrolide erythromycin was chosen in the initial screen for two reasons: first, its mechanism of inhibition of protein synthesis is well characterized and second, as a macrolide, erythromycin is representative of an expanding class of agents which includes the second most prescribed antibiotic, azithromycin.
In preliminary studies the inventors determined that under these conditions up to 2000 viable cells were transferred after incubation with erythromycin. As confirmed by broth microdilution, at least a 1000-fold reduction in viability was required to see no visible growth after 20 h.
Next the activity of the hit compounds was compared by titration of the compounds in the presence of erythromycin at 4 μg/ml as described above.
as §1

[4] = Staphylococcus aureus, SA1199, read-out: MBC^a = MBC in the absence of INF 401, Table 1, S. aureus SA1199, unit inferred
[5] = Staphylococcus aureus, SA1199, read-out: MBC^a = MBC in the absence of INF 401, Table 2, S. aureus SA1199, unit inferred
[6] = Table 1, S. aureus SA1199, unit not given
[7] = Table 2, S. aureus SA1199, unit inferred
[8] = Staphylococcus aureus, Table 1, S. aureus SA1199, unit inferred, read-out: MBC^a = MBC in the absence of INF 401
[9] = Staphylococcus aureus, Table 1, S. aureus SA1199, unit inferred, read-out: MIC

SMILES | MIC (S. aureus SA1199 [1]; Staphylococcus aureus, SA1199) | MBC (S. aureus SA1199 [1]; [4]) | MBC (S. aureus SA1199 [1]; [5]) | MBC^b = MBC in the presence of 5 μg/ml of INF 401 (S. aureus SA1199 [1]; [6]) | MIC (S. aureus SA1199 [1]; [7]) | MBC^b = MBC in the presence of 10 μg/ml of INF 402 (S. aureus SA1199 [3]) | Activity (minimal concentration required to kill 99.9% of S. aureus) (S. aureus strain SA1199) | ^55Fe Accm. (S. aureus SA 29213) | also measured
O=C(N[C@H](CO)[C@H](O)c1ccc([N+](=O)[O-])cc1)C(Cl)Cl [Chloramphenicol] | 8 µg/mL | > 64 µg/mL | > 64 µg/mL | 4 | 8 µg/mL | 8 | – | – | reduction in cell viability, antibiotic in combination with INF 401 (S. aureus (SA1199)): 3 log10; bactericidal concentration in the absence of INF 401 as multiple of MIC (S. pneumoniae): 2 ×MIC; amount of ^55Fe accumulated by cells, single agent (S. aureus SA 29213; LB, ^55FeCl3 30 min 37° C., chloramphenicol alone or INF 401 in absence of antibiotic): 4,976 DPM; effect of single agent on DNA integrity [2]: did not affect DNA integrity
COc1cc(Cc2cnc(N)nc2N)cc(OC)c1OC [Trimethroprim] | – | – | – | 8 | – | – | – | – | MBC^a = MBC in the absence of INF 401 (S. aureus SA1199 [1]; Table 1, S. aureus SA1199, unit inferred): 32 µg/mL; MIC (S. aureus SA1199 [1]; [6]): 1
CCC[C@@H]1C[C@@H](C(=O)N[C@@H]([C@H]2O[C@H](SC)[C@H](O)[C@@H](O)[C@H]2O)[C@H](C)Cl)N(C)C1 [Clindamycin] | – | – | – | 0.125 | 0.25 µg/mL | 2 | – | – | bactericidal concentration of antibiotic alone as multiple of MIC (S. aureus SA1199 [1]; S. aureus): 4 ×MIC; MBC (S. aureus SA1199 [1]; [8]): 4 µg/mL; MIC (S. aureus SA1199 [1]; [9]): 0.25 µg/mL; MBC^a = MBC in the absence of INF 401 (S. aureus SA1199 [1]; [7]): 4 µg/mL; reduction in cell viability, antibiotic in combination with INF 401 (S. aureus (SA1199)): 3 log10; MIC (S. aureus ATCC 29213; Staphylococcus aureus, ATCC29213, planktonic population): < 1 µg/mL; MBEC (S. aureus ATCC 29213; biofilm population): 256 µg/mL
O=C(N/N=C/c1c(O)ccc2ccccc12)Nc1ccccc1 | – | – | – | – | – | – | 0.3 µg/mL | 14,400 DPM | –
COc1ccccc1NC(=O)N/N=C/c1c(O)ccc2ccccc12 | – | – | – | – | – | – | >10 µg/mL | 1,900 DPM | –
CC[C@H]1OC(=O)[C@H](C)[C@@H](O[C@H]2C[C@@](C)(OC)[C@@H](O)[C@H](C)O2)[C@H](C)[C@@H](O[C@@H]2O[C@H](C)C[C@H](N(C)C)[C@H]2O)[C@](C)(O)C[C@@H](C)C(=O)[C@H](C)[C@@H](O)[C@]1(C)O [Erythromycin] | 1 µg/mL | 16 to 32 µg/mL | > 8 µg/mL | 1 | 1 µg/mL | 1 | – | – | bactericidal concentration of antibiotic alone as multiple of MIC (S. aureus SA1199 [1]; S. aureus): 16-32 ×MIC; Minimal Bactericidal Concentration (greater than 1000-fold decrease in cell viability), antibiotic alone (S. aureus SA1199 [1]; S. aureus, not by NCCLS procedure): 16 to 32 µg/mL; effect of single agent on growth of S. aureus in time kill study (S. aureus (SA1199); INF 401 5 μg/ml alone, erythromycin 2×MIC alone): bacteriostatic; bactericidal concentration in the absence of INF 401 as multiple of MIC (S. pneumoniae): 1 ×MIC
O=C(Cc1ccccc1)N/N=C/c1c(O)ccc2ccccc12 | – | – | – | – | – | – | 0.15 µg/mL | 36,941 DPM | –
CC[n+]1c(-c2ccccc2)c2cc(N)ccc2c2ccc(N)cc21 [Ethidium bromide] | 16 µg/mL | > 128 µg/mL | > 128 µg/mL | >128 | 16 µg/mL | >128 | – | – | –
N[C@@H]1CON=C1O [Cycloserine] | – | – | – | 32 | – | – | – | – | MBC (S. aureus SA1199 [1]; [8]): > 256 µg/mL; MIC (S. aureus SA1199 [1]; [9]): 32 µg/mL
CCOc1cccc(/C=N/NC(=O)Cc2ccc(C)cc2)c1O [drawing 38] | – | – | – | – | – | – | 1.25 µg/mL | 17,400 DPM | –
